Five compounds from ChEMBL document CHEMBL1201862, “PubChem BioAssay data set” (2004) can be followed below.

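Assay format: 96-well plates, 48-hour exposure. The concentration for 50% growth inhibition is given as GI50.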 Calls of active or inactive are those of the source. Rule as the data show it: active = GI50 up to about 1.1 µM and inactive = higher.

Some test systems named below: NCI-H460; NCI-H522; PC-3; DU-145; LOX IMVI; SNB-19; TK-10; IGROV-1; NCI-H226; NCI-H23; MCF7; SN12C; U-251; HCT-15; SR; UACC-257; CCRF-CEM; COLO 205; SK-MEL-2; SK-MEL-5.
Common to all, as to experiment: NCI tumour cell line growth inhibition, 48 h

Turning to `C=C1CC(Cn2cc(Br)c(=O)[nH]c2=O)(c2ccc(Br)cc2)OC1=O` (stereo not given), the GI50 was 14.1 µM (inactive) with NCI-H460; 1.6 µM (inactive) with NCI-H522; 3.56 µM (inactive) with PC-3; 5.65 µM (inactive) in the test on DU-145; 1.58 µM (inactive) in the test with LOX IMVI; 15.8 µM (inactive) in the test with SNB-19. In addition, the GI50 in the test with TK-10 is 7.23 µM (inactive); in the test on IGROV-1 it was 1.89 µM (inactive); in the test on NCI-H226, 13.4 µM (inactive); with NCI-H23 it was 3.81 µM (inactive); in the test on MCF7 it was 2.61 µM (inactive); with SN12C it was 6.81 µM (inactive). Further, the GI50 in the test with U-251 is 13.3 µM (inactive); in the test on HCT-15 it was 1.83 µM; with SR, 1.52 µM (inactive); with UACC-257, 1.82 µM (inactive); in the test on CCRF-CEM it was 0.614 µM (active); in the test with COLO 205 it was 1.53 µM (inactive). The results for the GI50 in the test with SK-MEL-2 and with SK-MEL-5 were 1.72 µM (inactive) and 3.01 µM (inactive), respectively.

Consider `COC(=O)Cc1c(/C=C/C(C)(C)n2cnc(CCN3C(=O)CCC3=O)c2)[nH]c2ccccc12`, for which the GI50 was > 100 µM (inactive) in the test with NCI-H460; 43.4 µM (inactive) in the test with NCI-H522; > 100 µM (inactive) in the test on PC-3; > 100 µM (inactive) in the test with DU-145; > 100 µM (inactive) in the test with LOX IMVI; > 100 µM (inactive) in the test with SNB-19. Also, the GI50 with TK-10 is > 100 µM (inactive); in the test on IGROV-1, > 100 µM (inactive); in the test with NCI-H226 it was > 100 µM (inactive); in the test with NCI-H23, > 100 µM (inactive); in the test on MCF7, 47.2 µM (inactive); with SN12C, > 100 µM (inactive). Further, the GI50 in the test on U-251 was > 100 µM (inactive); in the test on HCT-15 it was more than 100 µM; in the test with SR, 61.4 µM (inactive); with UACC-257, > 100 µM (inactive); in the test on CCRF-CEM, 40.4 µM (inactive); in the test with COLO 205 it was > 100 µM (inactive). Moreover, the results for the GI50 with SK-MEL-2 and with SK-MEL-5 were > 100 µM (inactive) and 66.8 µM (inactive), respectively.

Regarding `Cc1cc(=O)oc2c(C)c3oc(CBr)cc3cc12`, the GI50 was 17.2 µM (inactive) in the test with NCI-H460; 15.2 µM (inactive) with NCI-H522; 16.9 µM (inactive) in the test with PC-3; 33.6 µM (inactive) in the test with DU-145; 15.3 µM (inactive) with LOX IMVI; 29 µM (inactive) in the test on SNB-19. Also, the GI50 is 19.9 µM (inactive) in the test on TK-10; 16.8 µM (inactive) in the test with IGROV-1; 15.5 µM (inactive) with NCI-H226; 18.3 µM (inactive) in the test on NCI-H23; 25.2 µM (inactive) in the test on MCF7; 19.5 µM (inactive) in the test with SN12C. In addition, the GI50 with U-251 was 19.8 µM (inactive); in the test on HCT-15 it was 18.2 µM; in the test with SR it was 33 µM (inactive); in the test on UACC-257, 22.8 µM (inactive); with CCRF-CEM it was 14.4 µM (inactive); in the test on COLO 205 it was 18.4 µM (inactive). For the same compound, the GI50 in the test on SK-MEL-2 is 24.5 µM (inactive); in the test with SK-MEL-5 it was 13.2 µM (inactive).

Turning to `CC(=O)O[C@H]1C(=O)[C@@]2(C)[C@H]([C@H](OC(=O)c3ccccc3)[C@@]3(O)C[C@H](O)C(C)=C1C3(C)C)[C@]1(OC(C)=O)CO[C@@H]1C[C@@H]2O`, the GI50 with NCI-H460 is 24.2 µM (inactive); in the test with NCI-H522, 17 µM (inactive); in the test with PC-3 it was 28 µM (inactive); in the test on DU-145, 34.7 µM (inactive); with LOX IMVI, 45.3 µM (inactive); with SNB-19 it was 69.3 µM (inactive). The GI50 in the test with TK-10 is 83.2 µM (inactive); in the test on IGROV-1 it was 19.5 µM (inactive); with NCI-H226 it was 86.5 µM (inactive); with NCI-H23, 39.1 µM (inactive); with MCF7, 30.4 µM (inactive); with SN12C, 49.4 µM (inactive). The GI50 was 45.9 µM (inactive) in the test on U-251; 53.3 µM in the test with HCT-15; 12.9 µM (inactive) in the test with SR; 83.6 µM (inactive) in the test on UACC-257; 46.2 µM (inactive) with CCRF-CEM; 26.5 µM (inactive) in the test with COLO 205. Also, the GI50 with SK-MEL-2 is 46.9 µM (inactive); with SK-MEL-5 it was 35.8 µM (inactive).

Regarding `COc1ccc2c(c1)N(CCC1CCCCN1C)c1ccccc1S2` (stereo not given) [OXYRIDAZINE], the GI50 in the test on NCI-H460 is 7.46 µM (inactive); with NCI-H522 it was 13.1 µM (inactive); with PC-3, 10.8 µM (inactive); with DU-145, 13.2 µM (inactive); in the test with LOX IMVI, 9.57 µM (inactive); in the test on SNB-19, 15.2 µM (inactive). Moreover, the GI50 with TK-10 is 14.5 µM (inactive); with IGROV-1 it was 12.5 µM (inactive); with NCI-H226, 23.6 µM (inactive); in the test with NCI-H23, 17.1 µM (inactive); with MCF7, 11.4 µM (inactive); in the test with SN12C, 13.4 µM (inactive). The GI50 in the test on U-251 was 11.3 µM (inactive); with HCT-15, 13.4 µM; with SR it was 5.73 µM (inactive); in the test on UACC-257, 5.08 µM (inactive); in the test on CCRF-CEM, 10.1 µM (inactive); in the test on COLO 205, 12.3 µM (inactive). In addition, the GI50 in the test with SK-MEL-2 is 14.7 µM (inactive); with SK-MEL-5, 10.8 µM (inactive).
